# Results reported in the supplement of paper PMC10307832.
# Legend:
# Assay in all cases: relative viability (nuclei count vs DMSO), 5 days (fraction); higher = more cells survive
# [1] = test system: BEN
# How it was run: (§1)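 One day after seeding in 1536-well plates, lung cancer cell lines were dosed by pin tool. Dosing was either single-drug or a fixed anchor-drug dose plus five library-drug doses (not always all listed) in √10 steps. After 5 days, nuclei were stained in one fix-and-stain step and counted on 4× images, and relative viability is the nuclei count of treated wells over that of vehicle wells, given as the median of duplicate plates.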
# [2] = test system: CAL-12T
# How it was run: as §1
# [3] = test system: EKVX
# How it was run: as §1
# [4] = test system: HCC-366
# How it was run: as §1
# [5] = test system: HCC-44
# How it was run: as §1
# [6] = test system: LOU-NH91
# How it was run: as §1
# [7] = test system: LU99A
# How it was run: as §1
# [8] = test system: NCI-H1355
# How it was run: as §1
# [9] = test system: NCI-H1395
# How it was run: as §1
# [10] = test system: NCI-H1437
# How it was run: as §1
# [11] = test system: NCI-H1651
# How it was run: as §1
# [12] = test system: NCI-H1734
# How it was run: as §1
# [13] = test system: NCI-H1755
# How it was run: as §1
# [14] = test system: NCI-H1975
# How it was run: as §1
# [15] = test system: NCI-H2085
# How it was run: as §1
# [16] = test system: NCI-H2342
# How it was run: as §1
# [17] = test system: NCI-H358
# How it was run: as §1
# [18] = test system: NCI-H441
# How it was run: as §1
# [19] = test system: NCI-H460
# How it was run: as §1
# [20] = test system: NCI-H838
# How it was run: as §1
smiles,measurement,setting,value
CC1(C)CCC(c2ccc(Cl)cc2)=C(CN2CCN(c3ccc(C(=O)NS(=O)(=O)c4ccc(N[C@H](CCN5CCOCC5)CSc5ccccc5)c(S(=O)(=O)C(F)(F)F)c4)cc3)CC2)C1 [Navitoclax] + NC(=O)Nc1cc(-c2cccc(F)c2)sc1C(=O)N[C@H]1CCCNC1 [AZD7762] (partner 0.2 µM),relative viability,[1]; first compound 0.005 µM,0.705
same,relative viability,[1]; first compound 0.01581 µM,0.667
same,relative viability,[1]; first compound 0.05 µM,0.647
same,relative viability,[1]; first compound 0.1581 µM,0.725
same,relative viability,[1]; first compound 0.5 µM,0.377
same,relative viability,[2]; first compound 0.005 µM,0.626
same,relative viability,[2]; first compound 0.01581 µM,0.593
same,relative viability,[2]; first compound 0.05 µM,0.627
same,relative viability,[2]; first compound 0.1581 µM,0.619
same,relative viability,[2]; first compound 0.5 µM,0.541
same,relative viability,[3]; first compound 0.005 µM,0.728
same,relative viability,[3]; first compound 0.01581 µM,0.784
same,relative viability,[3]; first compound 0.05 µM,0.769
same,relative viability,[3]; first compound 0.1581 µM,0.729
same,relative viability,[3]; first compound 0.5 µM,0.777
same,relative viability,[4]; first compound 0.005 µM,0.27
same,relative viability,[4]; first compound 0.01581 µM,0.296
same,relative viability,[4]; first compound 0.1581 µM,0.197
same,relative viability,[4]; first compound 0.5 µM,0.214
same,relative viability,[5]; first compound 0.005 µM,0.935
same,relative viability,[5]; first compound 0.01581 µM,0.957
same,relative viability,[5]; first compound 0.05 µM,0.961
same,relative viability,[5]; first compound 0.1581 µM,0.915
same,relative viability,[5]; first compound 0.5 µM,0.881
same,relative viability,[6]; first compound 0.005 µM,0.746
same,relative viability,[6]; first compound 0.01581 µM,0.792
same,relative viability,[6]; first compound 0.05 µM,0.656
same,relative viability,[6]; first compound 0.1581 µM,0.535
same,relative viability,[6]; first compound 0.5 µM,0.306
same,relative viability,[7]; first compound 0.005 µM,0.414
same,relative viability,[7]; first compound 0.01581 µM,0.466
same,relative viability,[7]; first compound 0.1581 µM,0.43
same,relative viability,[7]; first compound 0.5 µM,0.439
same,relative viability,[8]; first compound 0.005 µM,0.745
same,relative viability,[8]; first compound 0.01581 µM,0.728
same,relative viability,[8]; first compound 0.05 µM,0.588
same,relative viability,[8]; first compound 0.1581 µM,0.735
same,relative viability,[8]; first compound 0.5 µM,0.668
same,relative viability,[9]; first compound 0.005 µM,0.368
same,relative viability,[9]; first compound 0.01581 µM,0.41
same,relative viability,[9]; first compound 0.05 µM,0.357
same,relative viability,[9]; first compound 0.1581 µM,0.385
same,relative viability,[9]; first compound 0.5 µM,0.405
same,relative viability,[10]; first compound 0.005 µM,1.06
same,relative viability,[10]; first compound 0.01581 µM,1.23
same,relative viability,[10]; first compound 0.05 µM,1.06
same,relative viability,[10]; first compound 0.1581 µM,1.08
same,relative viability,[10]; first compound 0.5 µM,1.05
same,relative viability,[11]; first compound 0.005 µM,0.485
same,relative viability,[11]; first compound 0.01581 µM,0.488
same,relative viability,[11]; first compound 0.05 µM,0.335
same,relative viability,[11]; first compound 0.1581 µM,0.474
same,relative viability,[11]; first compound 0.5 µM,0.466
same,relative viability,[12]; first compound 0.005 µM,0.533
same,relative viability,[12]; first compound 0.01581 µM,0.555
same,relative viability,[12]; first compound 0.1581 µM,0.543
same,relative viability,[12]; first compound 0.5 µM,0.506
same,relative viability,[13]; first compound 0.005 µM,0.426
same,relative viability,[13]; first compound 0.01581 µM,0.462
same,relative viability,[13]; first compound 0.05 µM,0.322
same,relative viability,[13]; first compound 0.1581 µM,0.439
same,relative viability,[13]; first compound 0.5 µM,0.474
same,relative viability,[14]; first compound 0.005 µM,0.855
same,relative viability,[14]; first compound 0.01581 µM,0.799
same,relative viability,[14]; first compound 0.05 µM,0.713
same,relative viability,[14]; first compound 0.1581 µM,0.752
same,relative viability,[14]; first compound 0.5 µM,0.646
same,relative viability,[15]; first compound 0.005 µM,0.941
same,relative viability,[15]; first compound 0.01581 µM,1.01
same,relative viability,[15]; first compound 0.05 µM,0.885
same,relative viability,[15]; first compound 0.1581 µM,1.07
same,relative viability,[15]; first compound 0.5 µM,0.942
same,relative viability,[16]; first compound 0.005 µM,0.532
same,relative viability,[16]; first compound 0.01581 µM,0.464
same,relative viability,[16]; first compound 0.05 µM,0.424
same,relative viability,[16]; first compound 0.1581 µM,0.603
same,relative viability,[16]; first compound 0.5 µM,0.571
same,relative viability,[17]; first compound 0.005 µM,0.566
same,relative viability,[17]; first compound 0.01581 µM,0.712
same,relative viability,[17]; first compound 0.05 µM,0.545
same,relative viability,[17]; first compound 0.1581 µM,0.485
same,relative viability,[17]; first compound 0.5 µM,0.592
same,relative viability,[18]; first compound 0.005 µM,1.12
same,relative viability,[18]; first compound 0.01581 µM,1.19
same,relative viability,[18]; first compound 0.05 µM,1.22
same,relative viability,[18]; first compound 0.1581 µM,1.04
same,relative viability,[18]; first compound 0.5 µM,1.24
same,relative viability,[19]; first compound 0.005 µM,0.575
same,relative viability,[19]; first compound 0.01581 µM,0.622
same,relative viability,[19]; first compound 0.05 µM,0.322
same,relative viability,[19]; first compound 0.1581 µM,0.573
same,relative viability,[19]; first compound 0.5 µM,0.532
same,relative viability,[20]; first compound 0.005 µM,0.971
same,relative viability,[20]; first compound 0.01581 µM,0.869
same,relative viability,[20]; first compound 0.05 µM,0.937
same,relative viability,[20]; first compound 0.1581 µM,0.97
same,relative viability,[20]; first compound 0.5 µM,0.957
